According to patent US6864286B2, “Inhibitors of the EGF-receptor tyrosine kinase and methods for their use” (Parker Hughes Institute, priority 1998, dated 2005):

Legend:
MDA-MB-361 cells = experiment: MTT cytotoxicity assay, MDA-MB-361; assay type: cell-based; conditions: Homo sapiens, 36 hours, read-out: Cancer Cell Cytotoxicity IC50 MDA-MB-361
Experimental: (§1) In order to determine the cytotoxic activity of LFM and its analogs against breast cancer cells, cells in alpha-MEM supplemented with 10% (v/v) fetal calf serum were treated with various concentrations of the compounds for 24 hours at 37° C., washed twice in alpha-MEM, and then used in either MTT assays or in vitro invasion assays, as described hereinafter.
(§2) The cytotoxicity of various compounds against human breast cancer cell lines was analyzed using the MTT (3-[4,5-dimethylthiazol-2-yl]-2,5-diphenyl tetrazolium bromide) assay (Boehringer Mannheim Corp., Indianapolis, Ind.). Uckun F. M., et al. Clin. Cancer Res. 1998, 4, 901-912. Exponentially growing breast cancer cells were seeded into a 96-well plate at a density of 2.5×10^4 cells/well and incubated for 36 hours at 37° C. prior to drug exposure. On the day of treatment, culture medium was carefully aspirated from the wells and replaced with fresh medium containing the LFM analogs at concentrations ranging from 2 to 250 μM. Triplicate wells were used for each treatment. The cells were incubated with the various compounds for 36 hours at 37° C. in a humidified 5% CO2 atmosphere. To each well, 10 μl of MTT (0.5 mg/ml final concentration) was added and the plates were incubated at 37° C. for 4 hours to allow MTT to form formazan crystals by reacting with metabolically active cells. The formazan crystals were solubilized overnight at 37° C. in a solution containing 10% SDS in 0.01 M HCl. The absorbence of each well was measured in a microplate reader (Labsystems) at 540 nm and a reference wavelength of 690 nm.
(§3) To translate the absorbance A540 values into the number of live cells in each well, the A540 values were compared to those on standard A540-versus-cell number curves generated for each cell line. The percent survival was calculated using the formula: % survival=Live cell number[test]/Live cell number [control]×100. The IC50 values were calculated by non-linear regression analysis using an Graphpad Prism software version 2.0 (Graphpad Software, Inc., San Diego, Calif.).

EGFR tyrosine kinase = target: T1, EGFR tyrosine kinase (Homo sapiens, UniProt P00533); experiment: Cell-free EGFR immune complex kinase assay; assay type: biochemical; conditions: EGFR immunoprecipitated from MDA-MB-231 lysates, 1 hour incubation, read-out: EGFR Inhibition IC50
T1 construct: anti-EGFR immunoprecipitates from lysates of MDA-MB-231 human breast cancer cells; endogenous in cells; host or cells: MDA-MB-231 (ATCC HTB-26)
Experimental: For EGFR immune complex kinase assays, 24-hours after treatment with leflunomide analogs, MDA-MB-231 breast cancer cells were stimulated with 20 ng/mL EGF for 5 minutes, lysed in 1% Nonidet-P-40 buffer, and cell lysates were immunoprecipitated with an anti-EGFR antibody reactive with the sequence Ala^351-Asp^364 of the human EGFR (Upstate Biotechnology Inc. [UBI] Catalog # 05-104) (Uckun, F. M., et al. Clin. Can. Res. 1998, 4, 901). EGFR immune complexes were examined for tyrosine phosphorylation by Western blot analysis, as described by Uckun, F. M., et al. Clin. Can. Res. 1998, 4, 901. All anti-phosphotyrosine Western blots were subjected to densitometric scanning using the automated AMBIS system (Automated Microbiology System, Inc., San Diego, Calif.) and for each time point a % inhibition value was determined by comparing the density ratios of the tyrosine phosphorylated EGFR protein bands to those of the baseline sample and using the formula: % Inhibition=100−100×[Density of tyrosine phosphorylated EGFR band]test sample/[Density of tyrosine phosphorylated EGFR band]baseline control sample. The IC50 values were determined using an Inplot program (Graphpad Software, Inc., San Diego, Calif.).
In other experiments, MDA-MB-231 cells were stimulated with 10 ng/ml EGF prior to immunoprecipitation of the EGFR. EGFR immune complexes were incubated for 1 hour at room temperature with various LFM analogs and tyrosine kinase assays were performed in the presence of [γ-^32P]-ATP, as previously described (Uckun, F. M., et al. Clin. Can. Res. 1998, 4, 901; Narla, R. K., et al. Clin. Can. Res 1998, 1405; Uckun, F. M., et al. Science 1996, 22, 1096; Uckun, F. M., et al. Science 1995, 267, 886). The kinase assay gels were analyzed both by autoradiography and using the BioRad Storage Phosphor Imager System (BioRad, Hercules, Calif.) for quantitative scanning.

MDA-MB-231 cells [1] = experiment: MTT cytotoxicity assay, MDA-MB-231; assay type: cell-based; conditions: Homo sapiens, 36 hours, read-out: Cancer Cell Cytotoxicity IC50 MDA-MB-231
Experimental: as §1, §2, §3

MDA-MB-231 cells [2] = experiment: Confocal laser scanning microscopy of treated cells; assay type: cell-based, human; conditions: MDA-MB-231, 100 μM, 24 hours, α-tubulin / TOTO-3 staining
Experimental: Immunofluorescence was used to examine the morphologic features of breast cancer cells treated with LFM and its analogs. Before the experiment, cells were trypsinized from rapidly growing tissue culture flasks and seeded onto sterile 22 mm^2 coverslips in 6-well culture plates. Cells on coverslips were returned to the incubator for 24 hours prior to treatment. The following day, drugs were added from a stock solution made in DMSO to a final concentration of 100 μM. Final DMSO concentration was 0.1% in both test samples and controls. Cells were returned to a 37° C. incubator for 24 hours before further processing.
At 24 hours, coverslips were fixed in −20° C. methanol for 15 minutes followed by a 15 minute incubation in phosphate buffered saline +0.1% Triton X-100(PBS-Tx). Coverslips were next incubated with a monoclonal antibody against α-tubulin (Sigma Chemical Co, St. Louis, Mo.) at a dilution of 1:1000 for 40 minutes in a humidified chamber at 37° C. Coverslips were washed for 15 minutes in PBS-Tx followed by a 40 min incubation with a goat anti-mouse IgG antibody conjugated to FITC (Amersham Corp., Arlington Heights, Ill.). The coverslips were again rinsed in PBS-Tx and incubated with 5 μM TOTO-3 (Molecular Probes, Eugene Oreg.) for 20 minutes to label the nuclear DNA. […]

T1 sequence (P00533 25-1210): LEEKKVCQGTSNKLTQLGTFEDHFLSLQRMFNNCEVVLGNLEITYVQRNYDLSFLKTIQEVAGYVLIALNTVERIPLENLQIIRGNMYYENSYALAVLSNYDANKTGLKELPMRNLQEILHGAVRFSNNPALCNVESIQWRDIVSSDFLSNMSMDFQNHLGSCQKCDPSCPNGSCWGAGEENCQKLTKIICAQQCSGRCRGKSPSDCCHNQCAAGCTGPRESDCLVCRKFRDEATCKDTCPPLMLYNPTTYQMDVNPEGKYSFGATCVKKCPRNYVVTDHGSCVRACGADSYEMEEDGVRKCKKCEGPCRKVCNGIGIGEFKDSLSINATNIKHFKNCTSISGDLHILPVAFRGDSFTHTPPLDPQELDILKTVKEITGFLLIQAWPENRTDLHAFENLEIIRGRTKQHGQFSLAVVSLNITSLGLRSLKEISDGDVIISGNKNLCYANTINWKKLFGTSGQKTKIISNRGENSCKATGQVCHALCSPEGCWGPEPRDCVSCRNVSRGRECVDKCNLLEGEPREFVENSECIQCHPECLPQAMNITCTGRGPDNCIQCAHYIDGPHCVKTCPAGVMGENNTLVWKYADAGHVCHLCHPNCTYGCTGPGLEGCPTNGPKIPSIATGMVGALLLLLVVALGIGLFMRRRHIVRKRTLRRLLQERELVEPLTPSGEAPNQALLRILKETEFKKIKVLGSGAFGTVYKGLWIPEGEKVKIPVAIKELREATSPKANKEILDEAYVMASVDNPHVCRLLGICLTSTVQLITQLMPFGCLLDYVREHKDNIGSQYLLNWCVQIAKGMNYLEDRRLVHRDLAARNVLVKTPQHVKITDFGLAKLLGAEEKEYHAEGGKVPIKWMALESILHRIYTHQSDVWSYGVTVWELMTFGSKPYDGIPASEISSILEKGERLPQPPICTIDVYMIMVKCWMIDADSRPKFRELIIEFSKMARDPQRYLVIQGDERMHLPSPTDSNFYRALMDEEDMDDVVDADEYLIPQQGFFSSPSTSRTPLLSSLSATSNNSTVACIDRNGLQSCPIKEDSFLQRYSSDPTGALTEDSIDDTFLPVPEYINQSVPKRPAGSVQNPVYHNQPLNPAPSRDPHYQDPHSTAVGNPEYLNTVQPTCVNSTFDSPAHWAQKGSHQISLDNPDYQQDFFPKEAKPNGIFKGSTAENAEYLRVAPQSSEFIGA

Row | IC50 (EGFR tyrosine kinase) [µM] | Structure (SMILES) | IC50 (MDA-MB-361 cells) [µM] | IC50 (MDA-MB-231 cells [1]) [µM] | morphology and microtubular organization of treated cells (MDA-MB-231 cells [2])
1 | > 100 | CC(O)=C(C#N)C(=O)Nc1ccc(Br)cc1 [LFM-A1, α-Cyano-β-hydroxy-β-methyl-N-(4-bromophenyl)propenamide] | > 300 | > 300 | 
2 | > 100 | CC(O)=C(C#N)C(=O)Nc1ccc(Cl)cc1 [LFM-A2, α-Cyano-β-hydroxy-β-methyl-N-(4-chlorophenyl)propenamide] | > 300 | > 300 | 
3 | > 100 | CC(O)=C(C#N)C(=O)Nc1ccc(F)cc1 [LFM-A3, α-Cyano-β-hydroxy-β-methyl-N-(4-fluorophenyl)propenamide] | > 300 | > 300 | did not affect the morphology or microtubular organization
4 | > 100 | CC(O)=C(C#N)C(=O)Nc1ccccc1C(F)(F)F [LFM-A4, α-Cyano-β-hydroxy-β-methyl-N-[2-(trifluoromethyl)phenyl]-propenamide] | > 300 | > 300 | 
5 | > 100 | CC(O)=C(C#N)C(=O)Nc1ccccc1Cl [LFM-A6, α-Cyano-β-hydroxy-β-methyl-N-(2-chlorophenyl)propenamide] | > 300 | > 300 | 
6 | > 100 | CC(O)=C(C#N)C(=O)Nc1cccc(C(F)(F)F)c1 [LFM-A8, α-Cyano-β-hydroxy-β-methyl-N-[3-(trifluoromethyl)phenyl]-propenamide] | > 300 | > 300 | 
7 | > 100 | CC(O)=C(C#N)C(=O)Nc1cccc(F)c1 [LFM-A11, α-Cyano-β-hydroxy-β-methyl-N-(3-fluorophenyl)propenamide] | > 300 | > 300 | 

Further lines, the compound ahead of its results:

Row | Structure (SMILES) | IC50 (EGFR tyrosine kinase) [µM] | IC50 (MDA-MB-361 cells) [µM] | IC50 (MDA-MB-231 cells [1]) [µM] | morphology and microtubular organization of treated cells (MDA-MB-231 cells [2])
8 | CC(O)=C(C#N)C(=O)Nc1ccccc1Br [LFM-A5, α-Cyano-β-hydroxy-β-methyl-N-(2-bromophenyl)propenamide] | > 100 | > 300 | > 300 | 
9 | CC(O)=C(C#N)C(=O)Nc1ccccc1F [LFM-A7, α-Cyano-β-hydroxy-β-methyl-N-(2-fluorophenyl)propenamide] | 74.5 | > 300 | > 300 | 
10 | CC(O)=C(C#N)C(=O)Nc1cccc(Br)c1 [LFM-A9, α-Cyano-β-hydroxy-β-methyl-N-(3-bromophenyl)propenamide] | > 100 | > 300 | > 300 | 
11 | CC(O)=C(C#N)C(=O)Nc1cccc(Cl)c1 [LFM-A10, α-Cyano-β-hydroxy-β-methyl-N-(3-chlorophenyl)propenamide] | > 100 | > 300 | > 300 | 
12 | CC(O)=C(C#N)C(=O)Nc1cc(Br)ccc1Br [LFM-A13, α-Cyano-β-hydroxy-β-methyl-N-(2,5-dibromophenyl)propenamide] | > 100 | > 300 | > 300 | 
13 | CC(O)=C(C#N)C(=O)Nc1ccccc1 [LFM-A14, α-Cyano-β-hydroxy-β-methyl-N-(phenyl)propenamide] | > 100 | > 300 | > 300 | 
